# Measurements from the CombiSolv-Exp solvation set (Vermeire and Green 2021).
# Assay: solvent given as SMILES
# [1] = in CCCCCCCCC=CCCCCCCCC(=O)OCC(COC(=O)CCCCCCCC=CCCCCCCCC)OC(=O)CCCCCCCC=CCCCCCCCC
smiles,measurement,setting,value
Cc1cc(C)c(C)cc1C,"solvation free energy, 298 K",in CC(C)(C)O,-6.62 kcal/mol
same,"solvation free energy, 298 K",in CC(C)CC(C)(C)C,-7.1 kcal/mol
same,"solvation free energy, 298 K",in CC(C)CC(C)O,-6.69 kcal/mol
same,"solvation free energy, 298 K",in CC(C)CCO,-6.63 kcal/mol
same,"solvation free energy, 298 K",in CC(C)CO,-6.52 kcal/mol
same,"solvation free energy, 298 K",in CC(C)O,-6.49 kcal/mol
same,"solvation free energy, 298 K",in CCC(C)O,-6.62 kcal/mol
same,"solvation free energy, 298 K",in CCCC(C)O,-6.69 kcal/mol
same,"solvation free energy, 298 K",in CCCCCC,-7.24 kcal/mol
same,"solvation free energy, 298 K",in CCCCCCC,-7.19 kcal/mol
same,"solvation free energy, 298 K",in CCCCCCCC,-7.14 kcal/mol
same,"solvation free energy, 298 K",[1],-7.13 kcal/mol
same,"solvation free energy, 298 K",in CCCCCCCCCC,-7.08 kcal/mol
same,"solvation free energy, 298 K",in CCCCCCCCCCO,-6.84 kcal/mol
same,"solvation free energy, 298 K",in CCCCCCCCO,-6.81 kcal/mol
same,"solvation free energy, 298 K",in CCCCCCCO,-6.78 kcal/mol
same,"solvation free energy, 298 K",in CCCCCCO,-6.75 kcal/mol
same,"solvation free energy, 298 K",in CCCCCO,-6.71 kcal/mol
same,"solvation free energy, 298 K",in CCCCO,-6.71 kcal/mol
same,"solvation free energy, 298 K",in CCCCOCCCC,-7.19 kcal/mol
same,"solvation free energy, 298 K",in CCCO,-6.54 kcal/mol
same,"solvation free energy, 298 K",in CCO,-6.44 kcal/mol
same,"solvation free energy, 298 K",in CCOCC,-7.34 kcal/mol
same,"solvation free energy, 298 K",in CO,-6.18 kcal/mol
same,"solvation free energy, 298 K",in O,-0.72 kcal/mol
Cc1cccc(O)c1C,"solvation free energy, 298 K",in CC(C)CC(C)(C)C,-6.27 kcal/mol
same,"solvation free energy, 298 K",in CCCCCC,-6.67 kcal/mol
same,"solvation free energy, 298 K",in O,-6.12 kcal/mol
c1ccc(Oc2ccccc2)cc1,"solvation free energy, 298 K",in O,-2.87 kcal/mol
C1=CCC=C1,"solvation free energy, 298 K",in Brc1cccc2ccccc12,-2.84 kcal/mol
same,"solvation free energy, 298 K",in CC(=O)OCc1ccccc1,-2.92 kcal/mol
same,"solvation free energy, 298 K",in CN1CCCC1=O,-3.33 kcal/mol
same,"solvation free energy, 298 K",in CN(C)C=O,-3.41 kcal/mol
same,"solvation free energy, 298 K",in O,-0.22 kcal/mol
same,"solvation free energy, 298 K",in c1ccc2ncccc2c1,-2.88 kcal/mol
CCCCCC(C)O (stereo not drawn),"solvation free energy, 298 K",in O,-3.88 kcal/mol
Cc1ccccc1O,"solvation free energy, 298 K",in CC(C)CC(C)(C)C,-5.68 kcal/mol
same,"solvation free energy, 298 K",in O,-5.85 kcal/mol
Clc1cc(Cl)c(-c2ccccc2)cc1Cl,"solvation free energy, 298 K",in CCCCCCCCO,-10.6 kcal/mol
C1CO1,"solvation free energy, 298 K",in O,-2.87 kcal/mol
N#Cc1cccnc1,"solvation free energy, 298 K",in O,-6.75 kcal/mol
CCNc1nc(NC(C)(C)C)nc(OC)n1,"solvation free energy, 298 K",in O,-9 kcal/mol
O=C(O)c1ccc(I)cc1,"solvation free energy, 298 K",in CN(C)C=O,-14 kcal/mol
same,"solvation free energy, 298 K",in O,-7.96 kcal/mol
C=CC(C)=CCCC(=C)C,"solvation free energy, 298 K",in O,-0.55 kcal/mol
CCC(C)CCO (stereo not drawn),"solvation free energy, 298 K",in CCCCCCCC,-4.82 kcal/mol
same,"solvation free energy, 298 K",in CCCCCCCCCC,-4.79 kcal/mol
CN1CCCC1,"solvation free energy, 298 K",in CCCCCCCCO,-4.97 kcal/mol
CCCCCCCCCC(=O)c1c(C)[nH]n(-c2ccccc2)c1=O,"solvation free energy, 298 K",in O,-8.46 kcal/mol
Clc1ccc(-c2ccc(Cl)c(Cl)c2)c(Cl)c1,"solvation free energy, 298 K",in O,-3.15 kcal/mol
CCCCCCCCC=CCCCCCCCC(=O)OCC,"solvation free energy, 298 K",in O,-8.25 kcal/mol
CC1=CC2C(=CC1)C(C)CCC2C(C)C (stereo not drawn),"solvation free energy, 298 K",in O,-0.26 kcal/mol
C=CC(C)CCCC(C)CCCC(C)CCCC(C)C (stereo not drawn),"solvation free energy, 298 K",in O,3.75 kcal/mol
CC1=CCC(=C(C)C)CCC(C)=CCC1,"solvation free energy, 298 K",in O,-0.37 kcal/mol
CCOCCOCC,"solvation free energy, 298 K",in O,-3.54 kcal/mol
O=[N+]([O-])c1ccc(Cl)c(Cl)c1Cl,"solvation free energy, 298 K",[1],-10.1 kcal/mol
same,"solvation free energy, 298 K",in O,-4.07 kcal/mol
O=C(O)CCCCc1ccccc1,"solvation free energy, 298 K",in O,-8.68 kcal/mol
Cc1ccccc1C=O,"solvation free energy, 298 K",in O,-3.93 kcal/mol
ClC1=C(Cl)C2(Cl)C3C4OC4C(Cl)C3C1(Cl)C2(Cl)Cl (stereo not drawn),"solvation free energy, 298 K",[1],-13 kcal/mol
same,"solvation free energy, 298 K",in CCCCCCCCO,-11.7 kcal/mol
CC1=CCC2C(C)=CCC(C(C)C)C2C1 (stereo not drawn),"solvation free energy, 298 K",in O,-0.38 kcal/mol
CN(C)C1CCCCC1,"solvation free energy, 298 K",in O,-4.12 kcal/mol
CCc1cccc(CC)c1N(COC)C(=O)CCl,"solvation free energy, 298 K",in O,-8.21 kcal/mol
CCCCCCOC(=O)c1ccccc1C(=O)OCCCCCC,"solvation free energy, 298 K",in O,-6.78 kcal/mol
CC(C)(C)C(=O)CC(=O)C(C)(C)C,"solvation free energy, 298 K",in O,-4.43 kcal/mol
O=C(O)c1cc([N+](=O)[O-])ccc1Cl,"solvation free energy, 298 K",in C1CCOC1,-13.6 kcal/mol
same,"solvation free energy, 298 K",in CC(C)(C)O,-13.1 kcal/mol
same,"solvation free energy, 298 K",in CC(C)CCO,-12.8 kcal/mol
same,"solvation free energy, 298 K",in CC(C)CO,-12.7 kcal/mol
same,"solvation free energy, 298 K",in CC(C)O,-13.1 kcal/mol
same,"solvation free energy, 298 K",in CC(C)OC(C)C,-12 kcal/mol
same,"solvation free energy, 298 K",in CCC(C)O,-12.9 kcal/mol
same,"solvation free energy, 298 K",in CCCC(C)O,-12.8 kcal/mol
same,"solvation free energy, 298 K",in CCCCCCCCCCO,-12.4 kcal/mol
same,"solvation free energy, 298 K",in CCCCCCCCO,-12.6 kcal/mol
same,"solvation free energy, 298 K",in CCCCCCCO,-12.6 kcal/mol
same,"solvation free energy, 298 K",in CCCCCCO,-12.6 kcal/mol
same,"solvation free energy, 298 K",in CCCCCO,-12.8 kcal/mol
same,"solvation free energy, 298 K",in CCCCO,-12.9 kcal/mol
same,"solvation free energy, 298 K",in CCCCOC(C)=O,-12.4 kcal/mol
same,"solvation free energy, 298 K",in CCCO,-13 kcal/mol
same,"solvation free energy, 298 K",in CCCOC(C)=O,-12.6 kcal/mol
same,"solvation free energy, 298 K",in CCO,-13.2 kcal/mol
same,"solvation free energy, 298 K",in CCOC(C)=O,-12.8 kcal/mol
same,"solvation free energy, 298 K",in CCOCC,-12.8 kcal/mol
same,"solvation free energy, 298 K",in COC(C)=O,-12.9 kcal/mol
same,"solvation free energy, 298 K",in O,-9.48 kcal/mol
CN(C)C=O,"solvation free energy, 298 K",in C1CCOC1,-5.99 kcal/mol
same,"solvation free energy, 298 K",in C1COCCO1,-6.17 kcal/mol
same,"solvation free energy, 298 K",in CC(C)=O,-6.43 kcal/mol
same,"solvation free energy, 298 K",in CCC(C)=O,-6.41 kcal/mol
same,"solvation free energy, 298 K",in CCCCCCCCCCCCCCCC,-3.88 kcal/mol
same,"solvation free energy, 298 K",in CCCCCCCCO,-5.95 kcal/mol
same,"solvation free energy, 298 K",in CCOC(C)=O,-6.1 kcal/mol
same,"solvation free energy, 298 K",in ClC(Cl)(Cl)Cl,-4.73 kcal/mol
same,"solvation free energy, 298 K",in O,-7.77 kcal/mol
same,"solvation free energy, 298 K",in [2H]O[2H],-7.47 kcal/mol
same,"solvation free energy, 298 K",in c1ccccc1,-6.19 kcal/mol
CCCCCCCC(C)=O,"solvation free energy, 298 K",in NC=O,-5.43 kcal/mol
same,"solvation free energy, 298 K",in O,-2.5 kcal/mol
CCCCCCC(=O)O,"solvation free energy, 298 K",in O,-6.12 kcal/mol
CC(C)CCOC(=O)c1ccccc1C(=O)OCCC(C)C,"solvation free energy, 298 K",in O,-6.88 kcal/mol
C=CC=CC,"solvation free energy, 298 K",in N#Cc1ccccc1,-3.26 kcal/mol
CCCCC(C)=O,"solvation free energy, 298 K",in C1COCCO1,-5.69 kcal/mol
same,"solvation free energy, 298 K",in CC(C)CC(C)(C)C,-4.72 kcal/mol
same,"solvation free energy, 298 K",in CCCCCC,-4.68 kcal/mol
same,"solvation free energy, 298 K",in CCCCCCC,-4.55 kcal/mol
same,"solvation free energy, 298 K",in CCCCCCCC,-4.6 kcal/mol
same,"solvation free energy, 298 K",in CCCCCCCCCC,-4.61 kcal/mol
same,"solvation free energy, 298 K",in CCCCCCCCCCCCCCCC,-4.39 kcal/mol
same,"solvation free energy, 298 K",in CCCCCCCCO,-5.02 kcal/mol
same,"solvation free energy, 298 K",in CO,-5.21 kcal/mol
same,"solvation free energy, 298 K",in ClC(Cl)(Cl)Cl,-5.36 kcal/mol
same,"solvation free energy, 298 K",in NC=O,-4.46 kcal/mol
same,"solvation free energy, 298 K",in O,-3.3 kcal/mol
same,"solvation free energy, 298 K",in [2H]O[2H],-3.24 kcal/mol
CC=CC=O,"solvation free energy, 298 K",in O=CN1CCOCC1,-4.69 kcal/mol
C=C(CCC=C(C)C)C1CC=C(C)CC1 (stereo not drawn),"solvation free energy, 298 K",in O,-0.5 kcal/mol
CCC(C)CC,"solvation free energy, 298 K",in C=CCCCCCCCCCCCCCC,-3.42 kcal/mol
same,"solvation free energy, 298 K",in CC#N,-2.58 kcal/mol
same,"solvation free energy, 298 K",in CCCCCCCCCCCCCCCC,-3.55 kcal/mol
same,"solvation free energy, 298 K",in CCCCCO,-3.33 kcal/mol
same,"solvation free energy, 298 K",in CCCCO,-3.19 kcal/mol
same,"solvation free energy, 298 K",in O,2.47 kcal/mol
COc1c(O)c(OC)c(Cl)c(C=O)c1Cl,"solvation free energy, 298 K",in O,-8.68 kcal/mol
C1CCOC1,"solvation free energy, 298 K",in CC(=O)N(C)C,-3.96 kcal/mol
same,"solvation free energy, 298 K",in CC(C)=O,-4.12 kcal/mol
same,"solvation free energy, 298 K",in CC(C)CC(C)(C)C,-3.72 kcal/mol
same,"solvation free energy, 298 K",in CC(C)CCCC(C)CCCC(C)CCCCC(C)CCCC(C)CCCC(C)C,-3.35 kcal/mol
same,"solvation free energy, 298 K",in CC(C)CCl,-4.2 kcal/mol
same,"solvation free energy, 298 K",in CC(C)O,-4.01 kcal/mol
same,"solvation free energy, 298 K",in CCC(C)Cl,-4.16 kcal/mol
same,"solvation free energy, 298 K",in CCCCCC,-3.68 kcal/mol
same,"solvation free energy, 298 K",in CCCCCCC,-3.7 kcal/mol
same,"solvation free energy, 298 K",in CCCCCCCC,-3.66 kcal/mol
same,"solvation free energy, 298 K",in CCCCCCCCCCCCCCCC,-3.43 kcal/mol
same,"solvation free energy, 298 K",in CCCCCCCCO,-3.9 kcal/mol
same,"solvation free energy, 298 K",in CCCCCl,-4.19 kcal/mol
same,"solvation free energy, 298 K",in CCCCN(C=O)CCCC,-3.89 kcal/mol
same,"solvation free energy, 298 K",in CCCCOCCCC,-3.8 kcal/mol
same,"solvation free energy, 298 K",in CCCCl,-4.31 kcal/mol
same,"solvation free energy, 298 K",in CCCO,-4.02 kcal/mol
same,"solvation free energy, 298 K",in CCN1CCCC1=O,-3.95 kcal/mol
same,"solvation free energy, 298 K",in CCN(CC)C(C)=O,-3.97 kcal/mol
same,"solvation free energy, 298 K",in CCNC(C)=O,-3.89 kcal/mol
same,"solvation free energy, 298 K",in CCNC=O,-3.93 kcal/mol
same,"solvation free energy, 298 K",in CCO,-4.09 kcal/mol
same,"solvation free energy, 298 K",in CCOC(C)=O,-4.11 kcal/mol
same,"solvation free energy, 298 K",in CN1CCCC1=O,-4.04 kcal/mol
same,"solvation free energy, 298 K",in CN1CCCCC1=O,-3.92 kcal/mol
same,"solvation free energy, 298 K",in CNC(C)=O,-3.87 kcal/mol
same,"solvation free energy, 298 K",in CO,-4.43 kcal/mol
same,"solvation free energy, 298 K",in CS(C)=O,-3.67 kcal/mol
same,"solvation free energy, 298 K",in ClC(Cl)(Cl)Cl,-4.28 kcal/mol
same,"solvation free energy, 298 K",in ClC(Cl)Cl,-5.12 kcal/mol
same,"solvation free energy, 298 K",in ClCCCl,-4.53 kcal/mol
same,"solvation free energy, 298 K",in NC=O,-3.69 kcal/mol
same,"solvation free energy, 298 K",in O,-3.49 kcal/mol
same,"solvation free energy, 298 K",in O=CN1CCOCC1,-3.7 kcal/mol
same,"solvation free energy, 298 K",in [2H]O[2H],-3.5 kcal/mol
CCCCOC,"solvation free energy, 298 K",in CCCCCl,-4.26 kcal/mol
same,"solvation free energy, 298 K",in ClC(Cl)(Cl)Cl,-4.39 kcal/mol
same,"solvation free energy, 298 K",in ClCCl,-4.71 kcal/mol
CC(=O)CC(=O)C(F)(F)F,"solvation free energy, 298 K",in O,-4.91 kcal/mol
C=CC1(C)CCC(C(C)C)=CC1C(=C)C (stereo not drawn),"solvation free energy, 298 K",in O,-0.42 kcal/mol
CCCCN(C)N=O,"solvation free energy, 298 K",in CC(C)CC(C)(C)C,-5.73 kcal/mol
same,"solvation free energy, 298 K",in O,-5.37 kcal/mol
